In patent US20230181608A1, “NUTRIENT COMPOSITION, FOOD INCLUDING THE SAME AND USE OF THE NUTRIENT COMPOSITION” (Heilongjiang Feihe Dairy Co., Ltd., priority 2021, published 2023):

Experiments:
Type in all cases: cell-based, newborn rats and mice
[1] = system: oligodendrocyte precursor cells (A2B5 positive cells); test: number of A2B5 positive cells (number of OPCs) after 12 DIVs, primary mixed culture of neurons and OL; settings: for effect on the number of A2B5 positive cells (proliferation of oligodendrocyte precursor cells), in words: in comparison with the blank control group / with the components alone
Procedure: All experiments were approved by ethics, and the primary mixed culture of neurons and OL were carried out according to the following steps. Briefly, the forebrain of newborn rats and mice were dissociated with trypsin (Trypsin EDTA 1X, PAN BIOTECH) at 37° C. for 20 minutes. After addition of Dulbecco modified Eagle medium (DMEM, PAN BIOTECH) containing DNAase I Grade II (0.1 mg/ml, PAN BIOTECH) and 10% fetal bovine serum (FCS, GIBCO), the reaction was stopped. The cells were mechanically separated three times through a 10 ml pipette, and then centrifuged at 4° C. under 515 g for 10 minutes. Living cells were inoculated in 96-well plates (20000/well), which were pre-coated with poly-L-lysine (BD Falcon) and laminin (Sigma). The culture medium consists of Neurobasal (GIBCO) added with 2% B27 (GIBCO), 2 mM L-glutamine (L Glu, PAN BIOTECH), 2% P/S solution (PAN BIOTECH), 1% FCS and 10 ng/ml platelet-derived growth factor (PDGF-AA, PAN BIOTECH). The 96-well plates are stored in a humidified incubator, at a temperature of 37° C. and with an environment of air (95%) - CO2 (5%). […] Half of the medium were replaced every other day. A mixture or separate nutrition were added to the fresh medium (the nutrient composition prepared above, containing 2′-FL, choline and/or milk fat global membrane). After 12, 18 and 30 DIVs, the cells were fixed with a cold mixture of 95% ethanol and acetic acid (5%) for 5 minutes. The non-specific sites were then blocked for 15 minutes at room temperature with a phosphate buffered saline (PBS) solution containing 0.1% saponin (Sigma) and 1% FCS (GIBCO). […] Finally, a secondary goat anti-rabbit antibody (diluted 1/400, SIGMA, SAB460084) was used to co-incubate at room temperature for 1 h. ImageXpress equipped with LED lights (360/480/565 for excitation and 460/535/620 for emission) is used for 20× amplification. All images are acquired using the same settings. […] Cells were inoculated on a 96-well plate and cultured for a certain period of time. Half of the culture medium was replaced every other day. […] The blank control group, positive control group and sample intervention group were compared, respectively. […] See Table 2 below for specific experimental dosage.

[2] = system: oligodendrocyte precursor cells (MAG positive cells); test: number of MAG positive cells after 18 DIVs (OPC differentiation/myelination), primary mixed culture of neurons and OL; settings: for effect on the number of MAG positive cells (myelination of oligodendrocyte precursor cells), in words: in comparison with the blank control group / with the components alone
Procedure: (§1) All experiments were approved by ethics, and the primary mixed culture of neurons and OL were carried out according to the following steps. Briefly, the forebrain of newborn rats and mice were dissociated with trypsin (Trypsin EDTA 1X, PAN BIOTECH) at 37° C. for 20 minutes. After addition of Dulbecco modified Eagle medium (DMEM, PAN BIOTECH) containing DNAase I Grade II (0.1 mg/ml, PAN BIOTECH) and 10% fetal bovine serum (FCS, GIBCO), the reaction was stopped. The cells were mechanically separated three times through a 10 ml pipette, and then centrifuged at 4° C. under 515 g for 10 minutes.
(§2) Living cells were inoculated in 96-well plates (20000/well), which were pre-coated with poly-L-lysine (BD Falcon) and laminin (Sigma). The culture medium consists of Neurobasal (GIBCO) added with 2% B27 (GIBCO), 2 mM L-glutamine (L Glu, PAN BIOTECH), 2% P/S solution (PAN BIOTECH), 1% FCS and 10 ng/ml platelet-derived growth factor (PDGF-AA, PAN BIOTECH). The 96-well plates are stored in a humidified incubator, at a temperature of 37° C. and with an environment of air (95%) - CO2 (5%).
(§3) A same number of cells were placed on 48-well plates, and then incubated for 12, 18 or 30 DIVs. Half of the medium were replaced every other day. A mixture or separate nutrition were added to the fresh medium (the nutrient composition prepared above, containing 2′-FL, choline and/or milk fat global membrane).
(§4) After 12, 18 and 30 DIVs, the cells were fixed with a cold mixture of 95% ethanol and acetic acid (5%) for 5 minutes. The non-specific sites were then blocked for 15 minutes at room temperature with a phosphate buffered saline (PBS) solution containing 0.1% saponin (Sigma) and 1% FCS (GIBCO).
At 18 DIVs, nerve cells were co-incubated with mouse monoclonal antibody MAG (dilution: 1/400, Millipore, MAB1567) and neurofilament protein antibody (dilution: 1/500, Sigma, N4142) for 2 h. Then a secondary goat […] antibody (dilution: 1/400, Sigma, SAB4600042) and a secondary goat anti-rabbit antibody (dilution: 1/400, SIGMA, SAB4600084) were used to co-incubate at room temperature for 1 h.
(§5) ImageXpress equipped with LED lights (360/480/565 for excitation and 460/535/620 for emission) is used for 20× amplification. All images are acquired using the same settings.
The differentiation of OPC into OL was evaluated by counting the number of MAG positive cells in cell culture. The results were expressed as the average number of cells per image and per well. The morphological maturity of MAG positive cells were assessed by measuring the average surface area of MAG positive cells in 18 DIV wells ([…]/image/well).
(§6) Cells were inoculated on a 96-well plate and cultured for a certain period of time. Half of the culture medium was replaced every other day. Varying concentrations of mixed or separate 2′-FL mixtures were added to the special culture medium for fresh primary cells (added on day 12, 18 and 30, respectively). 6 replicas for each sample. […] The blank control group, positive control group and sample intervention group were compared, respectively. The effects of milk fat global membrane, 2′-FL and choline, alone or in mixture, on OPC population, OL maturation and differentiation, myelin formation and neurite growth was determined by immunohistochemistry (MBP, NF, A2B5). See Table 2 below for specific experimental dosage.
In order to measure the effect of mixed nutrition or single nutrition treatment on OPC cell myelination, we evaluated the number of positive cells labelled MAG after 18 DIVs.

[3] = system: oligodendrocyte precursor cells (MBP positive cells); test: number of MBP positive cells after 30 DIVs (OPC/OL maturation), primary mixed culture of neurons and OL; settings: for effect on the number of MBP positive cells (maturation of oligodendrocyte precursor cells), in words: in comparison with the blank control group / with the components alone
Procedure: as §1, §2, §3, §4
At 30 DIVs, nerve cells were co-incubated with mouse monoclonal antibody MBP (dilution: 1/1000, Novus, NBP1-05204) and neurofilament protein antibody (dilution: 1/500, Sigma, N4142) for 2 hours. Then a secondary goat anti-mouse antibody (dilution: 1/800, Sigma, SAB4600042) and a secondary goat anti-rabbit antibody (dilution: 1/400, SIGMA, SAB4600084) were used to co-incubate at room temperature for 1 h.
as §5
At 30 DIVs, the maturity of OL was estimated by calculating the number of MBP positive cells (average number of cells per imge, per well) and the average surface area of MBP positive cells at 30 DIVs ([…], per image, per well).
as §6
In order to measure the effect of mixed nutrition or single nutrition treatment on OPC cell maturation, we evaluated the number of MBP positive cells after 30DIVs.

[4] = high dosage: 2′-FL 20, milk fat globule membrane 55, choline 6.5 mg/ml (those present)
[5] = low dosage: 2′-FL 0.2, milk fat globule membrane 0.55, choline 0.065 mg/ml (those present)
[6] = low dosage: milk fat globule membrane 0.55 or choline 0.065 mg/ml
[7] = medium dosage: 2′-FL 2, milk fat globule membrane 5.5, choline 0.65 mg/ml (those present)

SMILES | increase of the number of A2B5 positive cells relative to the blank control group (Cell Experiment Example 1) [1, 4] | number of A2B5 positive cells (mean±standard deviation) [1, 4] | effect on the number of A2B5 positive cells (proliferation of oligodendrocyte precursor cells), in words [1] | number of A2B5 positive cells (mean±standard deviation) [1, 5] | increase of the number of A2B5 positive cells relative to the blank control group (Cell Experiment Example 1) [1, 7] | number of A2B5 positive cells (mean±standard deviation) [1, 7] | increase of the number of MAG positive cells relative to the blank control group (Cell Experiment Example 1) [2, 4] | number of MAG positive cells (mean±standard deviation) [2, 4] | effect on the number of MAG positive cells (myelination of oligodendrocyte precursor cells), in words [2] | number of MAG positive cells (mean±standard deviation) [2, 5] | increase of the number of MAG positive cells relative to the blank control group (Cell Experiment Example 1) [2, 7] | number of MAG positive cells (mean±standard deviation) [2, 7] | increase of the number of MBP positive cells relative to the blank control group (Cell Experiment Example 1) [3, 4] | number of MBP positive cells (mean±standard deviation) [3, 4] | effect on the number of MBP positive cells (maturation of oligodendrocyte precursor cells), in words [3] | number of MBP positive cells (mean±standard deviation) [3, 5] | increase of the number of MBP positive cells relative to the blank control group (Cell Experiment Example 1) [3, 7] | number of MBP positive cells (mean±standard deviation) [3, 7] | further results
C[N+](C)(C)CCO.[Cl-] [choline, choline chloride] | -9 | 107.67±6.03 | may increase the number of A2B5 positive cells | 167.33±3.51 | 109 | 225.67±5.03 | 40.66 | 81.33±3.21 | could increase the number of MAG positive cells | 66.33±6.03 | 53.33 | 94.00±4.58 | 5.67 | 68.00±2.65 | can increase the number of MBP positive cells | 113.33±5.69 | 71.34 | 133.67±4.16 | increase of the number of A2B5 positive cells relative to the blank control group (Cell Experiment Example 1) [1, 6]: 50.66; increase of the number of MAG positive cells relative to the blank control group (Cell Experiment Example 1) [2, 6]: 25.66; increase of the number of MBP positive cells relative to the blank control group (Cell Experiment Example 1) [3, 6]: 51
CC1O[C@@H](OC2[C@H](O[C@@H]3C(CO)O[C@H](O)C(O)[C@@H]3O)OC(CO)[C@H](O)[C@H]2O)C(O)[C@H](O)[C@@H]1O (stereo partly drawn) [2′-FL, 2′-fucosyl lactose] | 18.33 | 135.00±6.08 | may increase the number of A2B5 positive cells | 151.33±4.73 | 39.33 | 156.00 ±5.57 | 21.33 | 62.00±4.00 | could increase the number of MAG positive cells | 54.00±6.08 | 35.66 | 76.33±4.51 | 20.67 | 83.00±5.29 | can increase the number of MBP positive cells | 104.00±4.58 | 42.34 | 104.67±5.03 * * | 
CC(C)CCC[C@@H](C)[C@H]1CC[C@H]2[C@@H]3CCC4=CC(=NO)CC[C@]4(C)[C@H]3CC[C@]12C [Olesoxime] |  |  |  |  |  |  |  |  |  |  |  |  |  |  |  |  |  |  | number of A2B5 positive cells (mean±standard deviation) ([1]; positive control, 300 nM): 171.33±3.51; number of MAG positive cells (mean±standard deviation) ([2]; positive control, 300 nM): 87.00±4.36; number of MBP positive cells (mean±standard deviation) ([3]; positive control, 300 nM): 124.00±3.61
